Test results published in PubChem BioAssay AID1963979 (Molecular Pharmacology Branch, DTP, NCI, 2024).

System: 361931-004-R-J1-PDC multicell spheroid viability
Experiment: Anticancer human tumor 361931-004-R-J1-PDC patient-derived colon adenocarcinoma cell line growth inhibition [PI3K]
Details: for IC50: curve of first compound; for viability, T/C: stronger effect = lower value
Outline: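 High-throughput combination screen: PI3K inhibitors crossed with targeted small molecules on complex spheroids of tumor cells, HUVEC and MSCs at 37 degrees C, 5% CO2. Top concentration was at or near clinical Cmax (otherwise 10 microM), with half-log decrements.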

[1] = second compound 0.0316 µM, first compound 0.0316 µM
[2] = second compound 0.0316 µM, first compound 0.1 µM
[3] = second compound 0.0316 µM, first compound 0.316 µM
[4] = second compound 0.0316 µM, first compound 1 µM
[5] = second compound 0.0316 µM, first compound 3.16 µM
[6] = second compound 0.0316 µM, first compound 10 µM
[7] = second compound 0.1 µM, first compound 0.0316 µM
[8] = second compound 0.1 µM, first compound 0.1 µM
[9] = second compound 0.1 µM, first compound 0.316 µM
[10] = second compound 0.1 µM, first compound 1 µM
[11] = second compound 0.1 µM, first compound 3.16 µM
[12] = second compound 0.1 µM, first compound 10 µM
[13] = second compound 0.316 µM, first compound 0.0316 µM
[14] = second compound 0.316 µM, first compound 0.1 µM
[15] = second compound 0.316 µM, first compound 0.316 µM
[16] = second compound 0.316 µM, first compound 1 µM
[17] = second compound 0.316 µM, first compound 3.16 µM
[18] = second compound 0.316 µM, first compound 10 µM
[19] = second compound 1 µM, first compound 0.0316 µM
[20] = second compound 1 µM, first compound 0.1 µM
[21] = second compound 1 µM, first compound 0.316 µM
[22] = second compound 1 µM, first compound 1 µM
[23] = second compound 1 µM, first compound 3.16 µM
[24] = second compound 1 µM, first compound 10 µM
[25] = second compound 3.16 µM, first compound 0.0316 µM
[26] = second compound 3.16 µM, first compound 0.1 µM
[27] = second compound 3.16 µM, first compound 0.316 µM
[28] = second compound 3.16 µM, first compound 1 µM
[29] = second compound 3.16 µM, first compound 3.16 µM
[30] = second compound 3.16 µM, first compound 10 µM
[31] = second compound 10 µM, first compound 0.0316 µM
[32] = second compound 10 µM, first compound 0.1 µM
[33] = second compound 10 µM, first compound 0.316 µM
[34] = second compound 10 µM, first compound 1 µM
[35] = second compound 10 µM, first compound 3.16 µM
[36] = second compound 10 µM, first compound 10 µM
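Further: spheroids exposed to agents for seven days before readout.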

## C#Cc1c(F)ccc2cc(O)cc(-c3ncc4c(N5CC6CCC(C5)N6)nc(OCC56CCCN5CC(F)C6)nc4c3F)c12 (stereo unspecified) + Cc1nc(NC(=O)N2CCCC2C(N)=O)sc1-c1ccnc(C(C)(C)C(F)(F)F)c1
Second compound 0.0316 µM
  IC50: > 10 µM
Second compound 0.1 µM
  IC50: > 10 µM
Second compound 0.316 µM
  IC50: > 10 µM
Second compound 1 µM
  IC50: > 10 µM
Second compound 3.16 µM
  IC50: 3.52 µM
Second compound 10 µM
  IC50: 0.219 µM
[1]
  viability, T/C: 104%
[2]
  viability, T/C: 90.5%
[3]
  viability, T/C: 91.6%
[4]
  viability, T/C: 83%
[5]
  viability, T/C: 79.7%
[6]
  viability, T/C: 69.3%
[7]
  viability, T/C: 109%
[8]
  viability, T/C: 98.3%
[9]
  viability, T/C: 93.7%
[10]
  viability, T/C: 88.9%
[11]
  viability, T/C: 88.2%
[12]
  viability, T/C: 61.8%
[13]
  viability, T/C: 91.6%
[14]
  viability, T/C: 86.5%
[15]
  viability, T/C: 78.6%
[16]
  viability, T/C: 69.5%
[17]
  viability, T/C: 73.5%
[18]
  viability, T/C: 58%
[19]
  viability, T/C: 89.2%
[20]
  viability, T/C: 86.2%
[21]
  viability, T/C: 70.3%
[22]
  viability, T/C: 62.2%
[23]
  viability, T/C: 68.2%
[24]
  viability, T/C: 58.6%
[25]
  viability, T/C: 85.4%
[26]
  viability, T/C: 77.9%
[27]
  viability, T/C: 65.5%
[28]
  viability, T/C: 53.9%
[29]
  viability, T/C: 56.5%
[30]
  viability, T/C: 42%
[31]
  viability, T/C: 62.2%
[32]
  viability, T/C: 48%
[33]
  viability, T/C: 49%
[34]
  viability, T/C: 40.2%
[35]
  viability, T/C: 39.2%
[36]
  viability, T/C: 22.1%

## CC(=O)c1c(C)c2cnc(Nc3ccc(N4CCNCC4)cn3)nc2n(C2CCCC2)c1=O + Cc1nc(NC(=O)N2CCCC2C(N)=O)sc1-c1ccnc(C(C)(C)C(F)(F)F)c1
Second compound 0.0316 µM
  IC50: > 0.1 µM
Second compound 0.1 µM
  IC50: > 0.1 µM
Second compound 0.316 µM
  IC50: > 0.1 µM
Second compound 1 µM
  IC50: > 0.1 µM
Second compound 3.16 µM
  IC50: > 0.1 µM
Second compound 10 µM
  IC50: 0.0564 µM
Second compound 0.0316 µM, first compound 0.000316 µM
  viability, T/C: 110%
Second compound 0.0316 µM, first compound 0.001 µM
  viability, T/C: 105%
Second compound 0.0316 µM, first compound 0.00316 µM
  viability, T/C: 101%
Second compound 0.0316 µM, first compound 0.01 µM
  viability, T/C: 98.7%
[1]
  viability, T/C: 99.6%
[2]
  viability, T/C: 78.2%
Second compound 0.1 µM, first compound 0.000316 µM
  viability, T/C: 109%
Second compound 0.1 µM, first compound 0.001 µM
  viability, T/C: 106%
Second compound 0.1 µM, first compound 0.00316 µM
  viability, T/C: 96.8%
Second compound 0.1 µM, first compound 0.01 µM
  viability, T/C: 94.8%
[7]
  viability, T/C: 90.7%
[8]
  viability, T/C: 81.5%
Second compound 0.316 µM, first compound 0.000316 µM
  viability, T/C: 106%
Second compound 0.316 µM, first compound 0.001 µM
  viability, T/C: 96.6%
Second compound 0.316 µM, first compound 0.00316 µM
  viability, T/C: 104%
Second compound 0.316 µM, first compound 0.01 µM
  viability, T/C: 97.8%
[13]
  viability, T/C: 83.1%
[14]
  viability, T/C: 83%
Second compound 1 µM, first compound 0.000316 µM
  viability, T/C: 97%
Second compound 1 µM, first compound 0.001 µM
  viability, T/C: 93.3%
Second compound 1 µM, first compound 0.00316 µM
  viability, T/C: 84.9%
Second compound 1 µM, first compound 0.01 µM
  viability, T/C: 91.9%
[19]
  viability, T/C: 90.2%
[20]
  viability, T/C: 65.2%
Second compound 3.16 µM, first compound 0.000316 µM
  viability, T/C: 80.7%
Second compound 3.16 µM, first compound 0.001 µM
  viability, T/C: 70.6%
Second compound 3.16 µM, first compound 0.00316 µM
  viability, T/C: 76.5%
Second compound 3.16 µM, first compound 0.01 µM
  viability, T/C: 77.7%
[25]
  viability, T/C: 65.7%
[26]
  viability, T/C: 52.6%
Second compound 10 µM, first compound 0.000316 µM
  viability, T/C: 66.7%
Second compound 10 µM, first compound 0.001 µM
  viability, T/C: 75.9%
Second compound 10 µM, first compound 0.00316 µM
  viability, T/C: 65%
Second compound 10 µM, first compound 0.01 µM
  viability, T/C: 58.4%
[31]
  viability, T/C: 56.5%
[32]
  viability, T/C: 45.1%

## CC(Cn1ccc(-c2ccc(C#N)c(Cl)c2)n1)NC(=O)c1cc(C(C)O)[nH]n1 (stereo unspecified) + Cc1nc(NC(=O)N2CCCC2C(N)=O)sc1-c1ccnc(C(C)(C)C(F)(F)F)c1
Second compound 0.0316 µM
  IC50: > 10 µM
Second compound 0.1 µM
  IC50: > 10 µM
Second compound 0.316 µM
  IC50: > 10 µM
Second compound 1 µM
  IC50: > 10 µM
Second compound 3.16 µM
  IC50: > 10 µM
Second compound 10 µM
  IC50: > 10 µM
[1]
  viability, T/C: 102%
[2]
  viability, T/C: 102%
[3]
  viability, T/C: 96.3%
[4]
  viability, T/C: 100%
[5]
  viability, T/C: 107%
[6]
  viability, T/C: 98.7%
[7]
  viability, T/C: 105%
[8]
  viability, T/C: 105%
[9]
  viability, T/C: 99.1%
[10]
  viability, T/C: 113%
[11]
  viability, T/C: 109%
[12]
  viability, T/C: 101%
[13]
  viability, T/C: 98.5%
[14]
  viability, T/C: 113%
[15]
  viability, T/C: 95.6%
[16]
  viability, T/C: 105%
[17]
  viability, T/C: 98.9%
[18]
  viability, T/C: 91.5%
[19]
  viability, T/C: 95.4%
[20]
  viability, T/C: 102%
[21]
  viability, T/C: 87.4%
[22]
  viability, T/C: 96%
[23]
  viability, T/C: 97%
[24]
  viability, T/C: 84.2%
[25]
  viability, T/C: 87.4%
[26]
  viability, T/C: 81.3%
[27]
  viability, T/C: 90.7%
[28]
  viability, T/C: 83.6%
[29]
  viability, T/C: 94.4%
[30]
  viability, T/C: 79.4%
[31]
  viability, T/C: 68%
[32]
  viability, T/C: 68%
[33]
  viability, T/C: 72.8%
[34]
  viability, T/C: 62.4%
[35]
  viability, T/C: 59.8%
[36]
  viability, T/C: 53%
